Assays:
[1] = tested on: NCI-H460 human large cell lung carcinoma xenografts; experiment: BOLD MRI signal ratio in tumors after RSR13 injection; assay type: in vivo, athymic nude mice; conditions: for Change in BOLD MRI signal: (Intensity (t = 30 min)/Intensity (t = 0)): 30 min after injection, preliminary
Description: (§1) NCI-H460 human large cell lung carcinoma cells were obtained from the American Type Culture Collection (ATCC). H460 cells were cultured at 37° C., 5% CO2 in RPMI 1640 medium (Gibco BRL, Gaithersburg, Md.)+10% fetal bovine serum (Gibco)+50 U/ml penicillin (Gibco)+50 μg/ml streptomycin (Gibco). Cells were routinely passaged using 0.05% trypsin-EDTA. Human NIH-H460 cells were used as a xenograft model in female athymic nude mice (nu/nu, 5–6 weeks old). Cells at 80% confluence were trypsinized, resuspended in growth medium, and counted. Cells were then centrifuged and resuspended in 37° C. PBS at 2×10^7 cells/ml. A suspension of 2×10^6 cells in a 0.1 ml volume was injected subcutaneously (s.c.) into the left posterior flank. Tumors were allowed to grow for 2 weeks (about 1 cm^3) before imaging, or for 7 days prior to treatment with RSR13 and radiation.
Mice with tumors were anesthetized with 0.05 cc of a ketamine (100 mg/ml) and acepromezine (2.5 mg/0.25 ml) cocktail (induction anesthesia). A 24G angiocath, attached to a syringe with the appropriate amount of RSR13, was then placed and secured intraperitoneally (i.p.). Mice were placed in a pre-warmed anesthesia chamber and the surface coil was positioned over the tumor. The entire assembly was then placed into a Varian 4.7T small bore MR scanner. The anesthesia chamber was then infused with a mixture of 98.5% room air and 1.5% isoflurane (maintenance anesthesia) at a rate of 1.5 L/min throughout the experiment. After scout images were obtained to localize the tumor, serial gradient echo images were obtained at ten-minute intervals over a total of 60 minutes. RSR13 was supplied as a 20-mg/ml stock solution, which was diluted with sterile phosphate-buffered saline (PBS) prior to experiments to achieve the desired dose (mg/kg) per […]. At the start of acquisition of the second image (“time 0”), a dose of RSR13 was injected i.p. RSR13 doses were administered in 0.3 ml volumes; control mice were given injections of saline. Preliminary experiments were performed to optimize the BOLD contrast, first by imaging mouse tumors without any drug, and then by administering different doses of RSR13. A dose of 200 mg/kg was then chosen for further studies. Parameters for BOLD-MRI scans were chosen to maximize sensitivity to oxygen dependent changes in the relaxation parameter T2*. The following MRI parameters were used: TR=520 ms, TE=27 ms, flip angle=45°, 18 signal averages, 230 μm spatial resolution, matrix=128×128, bandwidth=37.4 kHz, field of view=3×3 cm. Color maps indicating percent increase in signal relative to the baseline gradient echo image were created for each image. Color maps were overlaid on corresponding spin echo images for anatomic reference. After images were acquired, each individual tumor (at t=30 min.) was examined slice by slice, and a single slice which was most representative of the entire tumor was chosen. Within each representative slice, a 15×15-pixel regions of interest (ROI) was drawn around the area of maximum signal intensity (about 25% of the tumor slice area). The voxel size was 0.23 mm×0.23 mm×1 mm; thus the slice thickness was 1 mm. The same slice and ROI were then used to calculate the signal ratio corresponding to the other times for the same tumor. The following signal ratio was calculated: Intensity (t)/Intensity (t=0 min). Based on the signal parameters listed above, the MRI signal intesnsity is proportional to the MR relaxation time, T*2, which is linearly related to the level of oxygen saturation. See, e.g. Ogawa, et al., Magn. Reson. Med. 29:205–10 (1993). Images were analyzed in a blind fashion in the dose dependence studies, without knowledge of the drug doses used, to eliminate observer bias.
A paired t-test was applied to test the differences between baseline and follow-up time points. All tests of significance were two-sided, and differences were considered statistically significant when the P value was≦0.05. […]

[2] = tested on: NCI-H460 human large cell lung carcinoma xenografts; experiment: Tumor growth delay, RSR13 and/or radiation; assay type: in vivo, athymic nude mice; conditions: for Tumor growth delay: n=4
Description: as §1
Tumors on the flanks of mice were irradiated using an Eldorado-8 ^60Co γ irradiator (Neutron Products, Inc., Dickerson, Md.). The dose rate was 1.18 Gy/min, at an SSD of 56.5 cm. The non-tumor parts of mice were shielded using lead blocks. Mice were irradiated using restraining devices constructed from 50 ml conical polyethylene tubes taped to a Styrofoam pad. Mice were irradiated 30 min after administration of RSR13 (given by intraperitoneal injection).
Tumors were measured three times weekly in two perpendicular dimensions using Vernier calipers. Volumes were calculated using the formula: volume=0.4* ab^2 (a=long dimension, b=short dimension). Treatment began when tumors reached an average volume of about 0.3 cm^3. Growth delay time (GD) was calculated as the time for treated tumors to double in volume minus the time for control tumors to double in volume, with t=0 defined as the first day of treatment. Treatment groups consisted of either untreated control, radiation alone, RSR13 alone, or RSR13 plus radiation. Each treatment group contained four mice.
A paired t-test was applied to test the differences between baseline and follow-up time points. […]

tumors = conditions: previous studies, fractionated radiotherapy; cited from earlier work
hemoglobin = target: T1, hemoglobin (Mus musculus, UniProt P01942+P02088); conditions: 20–40 min after 300 mg/kg RSR13 injection into mice; cited from earlier work
T1 construct: after a 300 mg/kg RSR13 injection into mice; host or cells: blood (erythrocytes) of mice injected with RSR13; endogenous hemoglobin
T1 sequence (P01942 2-142 limits assumed): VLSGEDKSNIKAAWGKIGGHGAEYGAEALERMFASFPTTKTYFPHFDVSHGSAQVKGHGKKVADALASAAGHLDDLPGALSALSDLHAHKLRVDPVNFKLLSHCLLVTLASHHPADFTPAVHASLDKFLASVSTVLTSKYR
T1 sequence (P02088 2-147 limits assumed): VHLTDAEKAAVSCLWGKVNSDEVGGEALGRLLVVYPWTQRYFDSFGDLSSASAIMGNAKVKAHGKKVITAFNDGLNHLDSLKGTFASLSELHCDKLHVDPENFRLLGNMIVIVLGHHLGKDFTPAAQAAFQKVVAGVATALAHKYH

Cc1cc(C)cc(NC(=O)Cc2ccc(OC(C)(C)C(=O)O)cc2)c1 [RSR13, 2-[4-(((3,5-dimethylanilino)carbonyl)methyl)phenoxy]-2-methylpropionic acid]
Increase of MRI signal ratio between t=10 and 30 min ([1]; 200 mg/kg i.p., n=8, P=0.04): 14% | Increase of MRI signal ratio between t=10 and 20 min ([1]; 200 mg/kg i.p., n=8, P=0.05): 9% | Changes of MRI signal ratio between t=10 and 40, 50, or 60 min ([1]; 200 mg/kg i.p., n=8, P≧0.05): not statistically significant | Time of maximum MRI signal ratio after RSR13 injection ([1]; 200 mg/kg i.p., n=8 mice): 30 min | Increase in signal in tumor tissue ROI, normalized to signal at time zero ([1]; FIG. 9, H460 tumor ROI 1, about two hours after time zero injection): ~20% | Change in BOLD MRI signal: (Intensity (t = 30 min)/Intensity (t = 0)) ([1]; RSR13 100 mg/kg i.p., 1 mouse (Mouse B)): 1.13 | Change in BOLD MRI signal: (Intensity (t = 30 min)/Intensity (t = 0)) ([1]; RSR13 200 mg/kg i.p., 1 mouse (Mouse C)): 1.20 | Change in BOLD MRI signal: (Intensity (t = 30 min)/Intensity (t = 0)) ([1]; RSR13 300 mg/kg i.p., 1 mouse (Mouse D)): 1.19 | Dose at which the signal ratio reached a plateau ([1]; doses 0, 100, 200, 300 mg/kg, t=30 min): 200 mg/kg | Enhancement factor (growth delay RSR13 plus radiation / radiation alone) ([2]; 6.6/2.4, 200 mg/kg, 10 Gy 30 min later): 2.8 | Tumor growth delay ([2]; RSR13 200 mg/kg i.p. plus radiation 10 Gy given 30 min later, radiation alone 2.4 days): 6.6 days | Tumor growth delay ([2]; RSR13 alone, 200 mg/kg i.p.): did not affect tumor growth delay | Enhancement ratios (dose modifying factors) (tumors): 1.3–1.8 | Mean increase of pO2 at 50% hemoglobin saturation (hemoglobin): 53%

From US7097825B2, “Methods and reagents to acquire MRI signals and images” (Allos Therapeutics, Inc., priority 2001, dated 2006)
